Assay results from US20250353863A1, “TRICYCLIC SPIROLACTAM COMPOUNDS WITH ANTIMYCOBACTERIAL ACTIVITY” (priority 2022, published 2025).
≈ marks a conversion by molar mass, not a printed value. Like-named read-outs stand apart in the source and are kept apart here.

Experiments:
Mtb H37Rv-WT = assay: MIC by resazurin microtiter assay (REMA) against Mtb; type: cell-based; conditions: Mycobacterium tuberculosis
[1] = molecular target: purified Ndh (Mtb recombinant MBP tagged Ndh-2 enzyme, MBP-Ndh) (Mycobacterium tuberculosis (strain ATCC 25618 / H37Rv), UniProt P95160); assay: Biochemical evaluation of MBP-Ndh inhibition (NADH oxidation with menadione)
M. smegmatis = assay: MIC analysis of non-Mtb mycobacteria; type: cell-based; conditions: Mycolicibacterium smegmatis, 48 h; 2 days incubation
M. avium = assay: MIC analysis of non-Mtb mycobacteria; type: cell-based; conditions: Mycobacterium avium, 120 h; 5 days incubation
M. abscessus S = assay: MIC analysis of non-Mtb mycobacteria; type: cell-based, Mycobacterium abscessus; conditions: Mycobacteroides abscessus, 48 h; 2 days incubation
M. abscessus R = assay: MIC analysis of non-Mtb mycobacteria; type: cell-based, Mycobacterium abscessus; conditions: Mycobacteroides abscessus, 48 h; 2 days incubation
[2] = molecular target: NdhA-M. tb (recombinant MBP-NdhA) (Mycobacterium tuberculosis (strain ATCC 25618 / H37Rv), UniProt P95200); assay: Biochemical evaluation of MBP-NdhA inhibition (NADH oxidation with menadione)
M. marinum = assay: MIC analysis of non-Mtb mycobacteria; type: cell-based; conditions: Mycobacterium marinum, 120 h; 5 days, 30° C., visual inspection
BCG = assay: microbe, parasite or virus in culture; type: cell-based; conditions: Mycobacterium tuberculosis variant bovis BCG, read-out: MIC BCG
[3] = 144 h, REMA, 37° C., 6 days, read-out: MIC (μM) H37Rv-WT
[4] = NADH 500 μM, menadione 100 μM, read-out: IC50 (μM) purified Ndh
[5] = REMA, read-out: MIC M. tuberculosis
[6] = 144 h, read-out: MIC (μM) H37Rv-WT

Sequence of purified Ndh (Mtb recombinant MBP tagged Ndh-2 enzyme, MBP-Ndh) (P95160 whole entry, looked up): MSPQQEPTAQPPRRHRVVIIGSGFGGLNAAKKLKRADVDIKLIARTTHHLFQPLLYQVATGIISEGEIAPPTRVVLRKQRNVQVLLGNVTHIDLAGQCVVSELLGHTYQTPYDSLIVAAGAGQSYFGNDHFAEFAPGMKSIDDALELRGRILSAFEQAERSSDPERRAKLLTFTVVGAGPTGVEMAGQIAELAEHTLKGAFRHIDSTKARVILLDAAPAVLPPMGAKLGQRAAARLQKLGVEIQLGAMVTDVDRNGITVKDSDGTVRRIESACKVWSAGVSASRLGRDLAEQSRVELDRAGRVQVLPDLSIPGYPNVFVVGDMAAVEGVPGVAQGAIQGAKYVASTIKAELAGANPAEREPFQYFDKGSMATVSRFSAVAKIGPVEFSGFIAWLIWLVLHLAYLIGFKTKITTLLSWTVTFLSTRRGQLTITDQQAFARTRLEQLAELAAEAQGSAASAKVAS
Sequence of NdhA-M. tb (recombinant MBP-NdhA) (P95200 whole entry, looked up): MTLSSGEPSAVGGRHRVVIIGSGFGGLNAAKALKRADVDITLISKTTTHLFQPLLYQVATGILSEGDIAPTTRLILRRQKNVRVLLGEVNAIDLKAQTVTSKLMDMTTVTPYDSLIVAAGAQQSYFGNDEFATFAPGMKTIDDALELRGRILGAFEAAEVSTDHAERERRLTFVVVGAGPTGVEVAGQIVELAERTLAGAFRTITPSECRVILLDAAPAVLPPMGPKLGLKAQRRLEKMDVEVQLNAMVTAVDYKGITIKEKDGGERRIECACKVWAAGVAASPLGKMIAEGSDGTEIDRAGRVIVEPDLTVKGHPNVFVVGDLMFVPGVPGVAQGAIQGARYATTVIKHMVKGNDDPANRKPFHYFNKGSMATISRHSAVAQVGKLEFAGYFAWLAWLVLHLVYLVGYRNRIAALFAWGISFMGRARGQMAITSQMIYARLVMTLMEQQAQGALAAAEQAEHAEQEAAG

Compound: CC(C)[C@H]1CO[C@]23CCN(CC4CCCCC4)C[C@H]2CCC(=O)N13 [(3S,7aR,11aR)-9-(cyclohexylmethyl)-3-isopropyl-2,3,6,7,7a,8,10,11-octahydrooxazolo[2,3-j][1,6]naphthyridin-5-one]
- MIC (Mtb H37Rv-WT; [3]): < 1 µM
- IC50 [1, 4]: 0.1 to 1 µM

Compound: CC(C)[C@H]1CO[C@]23CCN(Cc4ccc(C(F)(F)F)cn4)C[C@H]2CCC(=O)N13 [(3S,7aR,11aR)-3-isopropyl-9-[[5-(trifluoromethyl)-2-pyridyl]methyl]-2,3,6,7,7a,8,10,11-octahydrooxazolo[2,3-j][1,6]naphthyridin-5-one]
- MIC (Mtb H37Rv-WT; [3]): < 1 µM
- IC50 [1, 4]: 0.1 to 1 µM

Compound: CC(C)[C@H]1CO[C@]23CCN(c4ccccc4)C[C@H]2CCC(=O)N13 [(3S,7aR,11aR)-3-isopropyl-9-phenyl-2,3,6,7,7a,8,10,11-octahydrooxazolo[2,3-j][1,6]naphthyridin-5-one]
- MIC (Mtb H37Rv-WT; [3]): 1 to 10 µM (≈ 0.314 to 3.14 µg/mL)
- IC50 [1, 4]: 0.1 to 1 µM

Compound: CC(C)[C@H]1CO[C@]23CCN(Cc4ccc5ccccc5n4)C[C@H]2CCC(=O)N13 [(3S,7aR,11aR)-3-isopropyl-9-(2-quinolylmethyl)-2,3,6,7,7a,8,10,11-octahydrooxazolo[2,3-j][1,6]naphthyridin-5-one]
- MIC (Mtb H37Rv-WT; [3]): < 1 µM
- IC50 [1, 4]: 0.1 to 1 µM

Compound: CC(C)[C@H]1CO[C@]23CCN(Cc4ccccc4)C[C@H]2CCC(=S)N13 [(3S,7aR,11aR)-9-benzyl-3-isopropyl-2,3,6,7,7a,8,10,11-octahydrooxazolo[2,3-j][1,6]naphthyridine-5-thione]
- MIC (Mtb H37Rv-WT; [3]): 1 to 10 µM (≈ 0.345 to 3.45 µg/mL)
- IC50 [1, 4]: 0.1 to 1 µM

Compound: CC(C)[C@H]1CO[C@]23CCN(Cc4cc5ccccc5n4C)C[C@H]2CCC(=O)N13 [Example 28, (3S,7aR,11aR)-3-isopropyl-9-[(1-methylindol-2-yl)methyl]-2,3,6,7,7a,8,10,11-ocathydrooxazolo[2,3-j][1,6]naphthyridin-5-one]
- MIC (M. smegmatis): < 1 µM
- MIC (Mtb H37Rv-WT; [5]): < 1 µM
- IC50 ([1]; read-out: IC50 Ndh-M. tb): < 0.1 µM

Compound: CC(C)[C@H]1CO[C@]23CCN(Cc4ccc(C(F)(F)F)cc4)C[C@H]2CCC(=O)N13 [Example 2, (3S,7aR,11aR)-3-isopropyl-9-[[4-(trifluoromethyl)phenyl]methyl]-2,3,6,7,7a,8,10,11-octahydrooxazolo[2,3-j][1,6]naphthyridin-5-one]
- MIC (M. avium): < 1 µM
- MIC (M. abscessus S): 1 to 10 µM (≈ 0.396 to 3.96 µg/mL)
- MIC (M. smegmatis): 1 to 10 µM (≈ 0.396 to 3.96 µg/mL)
- MIC (M. abscessus R): 1 to 10 µM (≈ 0.396 to 3.96 µg/mL)
- MIC (Mtb H37Rv-WT; [5]): < 1 µM
- IC50 [2]: < 100 nM
- MIC (M. marinum): < 1 µM
- MIC (BCG): 1 to 10 µM (≈ 0.396 to 3.96 µg/mL)

Compound: CC(C)[C@H]1CO[C@]23CCN(CCc4ccc(C(F)(F)F)cc4)C[C@H]2CCC(=O)N13
- MIC (Mtb H37Rv-WT; [3]): < 1 µM
- IC50 [1, 4]: 0.1 to 1 µM

Compound: CC(C)[C@H]1CO[C@]23CCN(Cc4ccccn4)C[C@H]2CCC(=O)N13
- MIC (Mtb H37Rv-WT; [6]): 1 to 10 µM (≈ 0.329 to 3.29 µg/mL)
- IC50 [1]: 0.1 to 1 µM

Compound: CC(C)[C@H]1CO[C@]23CCN(Cc4ccc(OC(F)(F)F)cc4)C[C@H]2CCC(=O)N13 [Example 3, (3S,7aR,11aR)-3-isopropyl-9-[[4-(trifluoromethoxy)phenyl]methyl]-2,3,6,7,7a,8,10,11-octahyooxazolo[2,3-j][1,6]naphthyridin-5-one]
- MIC (M. avium): < 1 µM
- MIC (M. abscessus S): 1 to 10 µM (≈ 0.412 to 4.12 µg/mL)
- MIC (M. smegmatis): 1 to 10 µM (≈ 0.412 to 4.12 µg/mL)
- MIC (M. abscessus R): 1 to 10 µM (≈ 0.412 to 4.12 µg/mL)
- MIC (Mtb H37Rv-WT; [5]): < 1 µM
- IC50 [2]: < 100 nM
- MIC (M. marinum): < 1 µM
- MIC (BCG): 1 to 10 µM (≈ 0.412 to 4.12 µg/mL)

Compound: CC(C)[C@H]1CO[C@]23CCN(Cc4ccc(Cl)c(Cl)c4)C[C@H]2CCC(=O)N13 [Example 5, (3S,7aR,11aR)-9-[(3,4-dichlorophenyl)methyl]-3-isopropyl-2,3,6,7,7a,8,10,11-octahydrooxazolo[2,3-j][1,6]naphthyridin-5-one]
- MIC (Mtb H37Rv-WT; [5]): < 1 µM
- IC50 ([1]; read-out: IC50 Ndh-M. tb): < 0.1 µM

Compound: CC(C)[C@H]1CO[C@]23CCN(C(=O)Cc4ccccc4)C[C@H]2CCC(=O)N13 [(3S,7aR,11aR)-3-isopropyl-9-(2-phenylacetyl)-2,3,6,7,7a,8,10,11-octahydrooxazolo[2,3-j][1,6]naphthyridin-5-one]
- MIC (Mtb H37Rv-WT; [3]): > 10 µM
- IC50 [1, 4]: > 1 µM

Compound: CC(C)[C@H]1CO[C@]23CCN(S(=O)(=O)c4ccc(C(F)(F)F)cc4)C[C@H]2CCC(=O)N13 [(3S,7aR,11aR)-3-isopropyl-9-[4-(trifluoromethyl)phenyl]sulfonyl-2,3,6,7,7a,8,10,11-octahydrooxazolo[2,3-j][1,6]naphthyridin-5-one]
- MIC (Mtb H37Rv-WT; [3]): 1 to 10 µM (≈ 0.446 to 4.46 µg/mL)
- IC50 [1, 4]: 0.1 to 1 µM

Compound: CC(C)[C@H]1CO[C@]23CCN(Cc4ccc(C(F)(F)F)nc4)C[C@H]2CCC(=O)N13 [(3S,7aR,11aR)-3-isopropyl-9-[[6-(trifluoromethyl)-3-pyridyl]methyl]-2,3,6,7,7a,8,10,11-octahydrooxazolo[2,3-j][1,6]naphthyridin-5-one]
- MIC (Mtb H37Rv-WT; [3]): < 1 µM
- IC50 [1, 4]: < 0.1 µM

Compound: CC(C)[C@H]1CO[C@]23CCN(Cc4ccc(Cl)c(C(F)(F)F)c4)C[C@H]2CCC(=O)N13 [Example 9, (3S,7aR,11aR)-9-[[4-chloro-3-(trifluoromethyl)phenyl]methyl]-3-isopropyl-2,3,6,7,7a,8,10,11-octahydrooxazolo[2,3-j][1,6]naphthyridin-5-one]
- MIC (M. avium): < 1 µM
- MIC (M. abscessus S): 1 to 10 µM (≈ 0.431 to 4.31 µg/mL)
- MIC (M. smegmatis): 1 to 10 µM (≈ 0.431 to 4.31 µg/mL)
- MIC (M. abscessus R): 1 to 10 µM (≈ 0.431 to 4.31 µg/mL)
- MIC (Mtb H37Rv-WT; [5]): < 1 µM
- MIC (M. marinum): < 1 µM
- MIC (BCG): 1 to 10 µM (≈ 0.431 to 4.31 µg/mL)
- IC50 ([1]; read-out: IC50 Ndh-M. tb): < 0.1 µM

Compound: CC(C)[C@H]1CO[C@]23CCN(CCc4ccccc4)C[C@H]2CCC(=O)N13 [(3S,7aR,11aR)-3-isopropyl-9-(2-phenylethyl)-2,3,6,7,7a,8,10,11-octahydrooxazolo[2,3-j][1,6]naphthyridin-5-one]
- MIC (Mtb H37Rv-WT; [3]): 1 to 10 µM (≈ 0.342 to 3.42 µg/mL)
- IC50 [1, 4]: 0.1 to 1 µM

Compound: CC(C)(C)[C@H]1CO[C@]23CCN(Cc4ccccc4)C[C@H]2CCC(=O)N13 [(3S,7aR,11aR)-9-benzyl-3-tert-butyl-2,3,6,7,7a,8,10,11-octahydrooxazolo[2,3-j][1,6]naphthyridin-5-one]
- MIC (Mtb H37Rv-WT; [3]): > 10 µM
- IC50 [1, 4]: > 1 µM

Compound: COc1ccc(CN2CC[C@]34OC[C@H](C(C)C)N3C(=O)CC[C@@H]4C2)cc1 [(3S,7aR,11aR)-3-isopropyl-9-[(4-methoxyphenyl)methyl]-2,3,6,7,7a,8,10,11-octahydrooxazolo[2,3-j][1,6]naphthyridin-5-one]
- MIC (Mtb H37Rv-WT; [3]): 1 to 10 µM (≈ 0.358 to 3.58 µg/mL)
- IC50 [1, 4]: 0.1 to 1 µM

Compound: CC(C)[C@H]1CO[C@]23CCN(Cc4cccc5cccnc45)C[C@H]2CCC(=O)N13 [(3S,7aR,11aR)-3-isopropyl-9-(8-quinolylmethyl)-2,3,6,7,7a,8,10,11-octahydrooxazolo[2,3-j][1,6]naphthyridin-5-one]
- MIC (Mtb H37Rv-WT; [3]): 1 to 10 µM (≈ 0.38 to 3.8 µg/mL)
- IC50 [1, 4]: > 1 µM

Compound: CC(C)[C@H]1CO[C@]23CCN(C(=O)OCc4ccccc4)C[C@H]2CCC(=O)N13 [benzyl (3S,7aR,11aR)-3-isopropyl-5-oxo-2,3,6,7,7a,8,10,11-octahydrooxazolo[2,3-j][1,6]naphthyridine-9-carboxylate]
- MIC (Mtb H37Rv-WT; [3]): 1 to 10 µM (≈ 0.372 to 3.72 µg/mL)
- IC50 [1, 4]: 0.1 to 1 µM

Compound: CC(C)[C@H]1CO[C@]23CCN(Cc4ccc(Cl)cc4)C[C@H]2CCC(=O)N13 [Example 4, (3S,7aR,11aR)-9-[(4-chlorophenyl)methyl]-3-isopropyl-2,3,6,7,7a,8,10,11-octahydrooxazolo[2,3-j][1,6]naphthyridin-5-one]
- MIC (Mtb H37Rv-WT; [5]): < 1 µM
- IC50 [2]: < 100 nM
- IC50 ([1]; read-out: IC50 Ndh-M. tb): < 0.1 µM

Compound: CC(C)[C@H]1CO[C@]23CCN(C4CCCCC4)C[C@H]2CCC(=O)N13 [(3S,7aR,11aR)-9-cyclohexyl-3-isopropyl-2,3,6,7,7a,8,10,11-octahydrooxazolo[2,3-j][1,6]naphthyridin-5-one]
- MIC (Mtb H37Rv-WT; [3]): > 10 µM

Compound: CC(C)[C@H]1CS[C@]23CCN(Cc4ccccc4)C[C@H]2CCC(=O)N13 [(3S,7aR,11aR)-9-benzyl-3-isopropyl-2,3,6,7,7a,8,10,11-octahydrothiazolo[2,3-j][1,6]naphthyridin-5-one]
- IC50 [1, 4]: > 1 µM

Compound: CC(C)[C@H]1CO[C@]23CC(=O)N(Cc4ccc(C(F)(F)F)cc4)C[C@H]2CCC(=O)N13 [(3S,7aR,11aR)-3-isopropyl-9-[[4-(trifluoromethyl)phenyl]methyl]-3,6,7,7a,8,11-hexahydro-2H-oxazolo[2,3-j][1,6]naphthyridine-5,10-dione]
- MIC (Mtb H37Rv-WT; [3]): > 10 µM

Compound: CC(C)[C@H]1CO[C@]23CCN(Cc4cccnc4)C[C@H]2CCC(=O)N13 [(3S,7aR,11aR)-3-isopropyl-9-(3-pyridylmethyl)-2,3,6,7,7a,8,10,11-octahydrooxazolo[2,3-j][1,6]naphthyridin-5-one]
- MIC (Mtb H37Rv-WT; [6]): 1 to 10 µM (≈ 0.329 to 3.29 µg/mL)
- IC50 [1, 4]: > 1 µM

Compound: Cc1c(CN2CC[C@]34OC[C@H](C(C)C)N3C(=O)CC[C@@H]4C2)[nH]c2ccccc12 [(3S,7aR,11aR)-3-isopropyl-9-[(3-methyl-1H-indol-2-yl)methyl]-2,3,6,7,7a,8,10,11-octahydrooxazolo[2,3-j][1,6]naphthyridin-5-one]
- MIC (Mtb H37Rv-WT; [3]): < 1 µM
